Data on 1 molecule can be found in US12251449B2, “Synthetic multidomain peptide biomaterials that inhibit inducible nitric oxide synthase” (William Marsh Rice University, priority 2019, dated 2025).

Where “and” joins values, the source holds several entries; their conditions need not be identical. Identical values can stand only once. *1 amine or outer side, *2 acyl side, *3 side chain or, on linkers, in order; H or OH if unused. Where a SMILES comes first, the peptide text is derived from it. [ ]: non-standard residue; d: D form. X1 = CC(=N)NCCCC[C@H](N[*:1])C(=O)[*:2]

Data set [1] is described as follows: Oscillatory rheology of peptide hydrogels. The format is physicochemical. Particulars: hydrogel at 1 wt. % in HBSS with sucrose. The method, then:
Oscillatory rheology. Peptide hydrogels were analyzed for their mechanical properties by oscillatory rheology using a TA Instruments AR-G2 rheometer (TA Instruments, New Castle, DE). Samples of 150 μL of 1 wt. % MDP hydrogels were prepared 24 hours prior to use for rheology, to allow full equilibration of the material. Gel samples were then transferred from a cut syringe onto the rheometer stage equipped with a 12 mm stainless-steel parallel plate set to a […] gap height. The following program was used to monitor the storage modulus (G′) and loss modulus (G″) under various conditions as has been previously published (Li & Hartgerink, 2017). Strain sweep analysis was performed using an applied strain of 0.01-200% at a frequency of 1 rad/s. Frequency sweep analysis was performed under 1% strain at 0.1-100 rad/s. Shear recovery analysis was performed by subjecting the peptide sample to 1% strain for 20 min, then 200% for 1 min, and finally 1% for 20 min, allowing for disruption of the hydrogel and monitoring of G′ and G″ recovery.

The target of another data set is T1, iNOS (Mus musculus, UniProt P29477).
T1 construct: endogenous in cells; host or cells: RAW 264.7 murine macrophages stimulated with LPS and IFN-gamma
T1 sequence (P29477 1-1144): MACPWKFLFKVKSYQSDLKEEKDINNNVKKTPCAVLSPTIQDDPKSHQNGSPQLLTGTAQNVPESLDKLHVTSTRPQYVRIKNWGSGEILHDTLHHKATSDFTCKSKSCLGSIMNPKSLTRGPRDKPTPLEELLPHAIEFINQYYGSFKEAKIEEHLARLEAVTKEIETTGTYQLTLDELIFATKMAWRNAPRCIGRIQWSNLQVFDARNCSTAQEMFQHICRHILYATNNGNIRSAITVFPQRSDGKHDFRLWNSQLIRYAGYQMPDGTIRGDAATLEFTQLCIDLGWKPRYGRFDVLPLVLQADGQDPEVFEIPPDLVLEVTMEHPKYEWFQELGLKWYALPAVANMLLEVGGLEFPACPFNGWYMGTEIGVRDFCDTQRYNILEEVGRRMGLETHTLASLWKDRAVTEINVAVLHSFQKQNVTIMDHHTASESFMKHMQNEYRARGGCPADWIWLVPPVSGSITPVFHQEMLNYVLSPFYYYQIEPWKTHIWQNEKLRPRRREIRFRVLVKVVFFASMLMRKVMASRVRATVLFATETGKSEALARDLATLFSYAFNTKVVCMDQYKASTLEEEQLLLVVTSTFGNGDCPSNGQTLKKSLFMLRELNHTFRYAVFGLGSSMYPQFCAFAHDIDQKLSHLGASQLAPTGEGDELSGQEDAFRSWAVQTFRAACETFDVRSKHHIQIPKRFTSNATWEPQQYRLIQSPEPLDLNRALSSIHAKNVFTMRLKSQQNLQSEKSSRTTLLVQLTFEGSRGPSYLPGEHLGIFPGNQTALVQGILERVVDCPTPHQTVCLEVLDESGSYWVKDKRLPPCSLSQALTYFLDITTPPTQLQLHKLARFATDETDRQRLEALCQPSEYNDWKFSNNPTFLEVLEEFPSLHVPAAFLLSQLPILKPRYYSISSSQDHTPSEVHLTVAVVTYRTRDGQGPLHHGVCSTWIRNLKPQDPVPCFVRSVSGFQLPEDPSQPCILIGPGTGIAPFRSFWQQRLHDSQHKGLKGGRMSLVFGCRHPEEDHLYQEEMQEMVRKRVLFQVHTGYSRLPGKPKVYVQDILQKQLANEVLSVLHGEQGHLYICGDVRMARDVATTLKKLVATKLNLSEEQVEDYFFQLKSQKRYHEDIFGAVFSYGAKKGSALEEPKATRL
In words: iNOS knockdown in vitro Greiss assay. The format is cell-based. The method, then:
iNOS knockdown in vitro Greiss assay. To evaluate the iNOS knockdown efficacy of various materials, the following procedure was used to test % iNOS inhibition of RAW 264.7 cells stimulated with Lipopolysaccharide (LPS, Thermo Fisher Scientific, Rockford, IL) and recombinant mouse IFN-7 (Biolegend, San Diego, CA). RAW macrophages were prepared at a stock concentration of 2.5×10^6 cells/mL, and plated at 2.5×10^5 cells per well in 24-well plates. For samples testing the efficacy of 2-D surface cell culture, 200 μL of MDP hydrogels was applied to evenly coat the surface of each well before addition of cells. Each experimental condition was performed in triplicate. The following controls were included in every experiment, 1) media alone, 2) stimulated cells alone, and 3) unstimulated cells alone. To each well, stimulation media or normal media was then added based on experimental requirement. Stimulation media was prepared with LPS (final concentration 1 μg/mL) and IFN-7 (final concentration 100 U/mL). For samples testing material efficacy in solution (e.g. free L-NIL), after 6 hrs of incubation at 37° C. with 5% CO2 the desired concentration of inhibitor was added to achieve a range of concentrations between 1 μM and 1 mM.
In all cases after 24 hours from time of stimulation, samples of cell media were collected from each well after mixing media by pipetting before collection. Media samples were placed into a 96-well plate and centrifuged at 5000 rpm for 10 min. Supernatants were removed and placed in a new clear 96-well plate, and samples were immediately analyzed using a colorimetric Greiss Assay (Cayman Chemical, Ann Arbor, MI) to assess nitrite levels (Bryan & Grisham, 2007). Color was allowed to develop for 10 min following addition of Greiss reagents, and absorbance was read at 540 nm on a plate reader. Percent iNOS inhibition for each sample was calculated by first subtracting the absorbance of the media-only baseline, and then converting to a percent of maximum nitrite signal as determined by the internal standard of stimulated cells alone.

Consider `CC(=N)NCCCC[C@H](NC(=O)[C@H](CCCCNC(C)=N)NC(=O)[C@H](CC(C)C)NC(=O)[C@H](CO)NC(=O)[C@H](CC(C)C)NC(=O)[C@H](CO)NC(=O)[C@H](CC(C)C)NC(=O)[C@H](CO)NC(=O)[C@H](CC(C)C)NC(=O)[C@H](CO)NC(=O)[C@H](CC(C)C)NC(=O)[C@H](CO)NC(=O)[C@H](CC(C)C)NC(=O)[C@H](CO)NC(=O)[C@H](CCCCNC(C)=N)NC(=O)[C@H](CCCCNC(C)=N)NC(C)=O)C(N)=O` [L-NIL-MDP] (Ac-[X1][X1]SLSLSLSLSLSL[X1][X1]-NH2), for which, in data set [1], the “loss modulus (G″)” value is 20-25 Pa and ~25 Pa; the “storage modulus (G′)” value was 260-300 Pa and ~300 Pa. Further, at iNOS (hydrogel surface culture compared with free L-NIL in solution), the “free L-NIL concentration giving a comparable level of iNOS inhibition” value is around 100 µM. In addition, at iNOS (stimulated RAW macrophages cultured on the hydrogel), the “iNOS inhibition (in words)” value is recorded as “greatest degree of iNOS inhibition”.
